Blank lines part the entries; values can stand above or below the molecule they belong to.
How the values were obtained:
[1] = molecular target: D(3) dopamine receptor (Homo sapiens, UniProt P35462)
[2] = molecular target: Sodium-dependent noradrenaline transporter (Homo sapiens, UniProt P23975)
[3] = molecular target: D(1A) dopamine receptor (Homo sapiens, UniProt P21728)
[4] = molecular target: T1, Alpha-2A adrenergic receptor (Homo sapiens, UniProt P08913); assay type: functional, cell-based
T1 sequence (P08913 whole entry): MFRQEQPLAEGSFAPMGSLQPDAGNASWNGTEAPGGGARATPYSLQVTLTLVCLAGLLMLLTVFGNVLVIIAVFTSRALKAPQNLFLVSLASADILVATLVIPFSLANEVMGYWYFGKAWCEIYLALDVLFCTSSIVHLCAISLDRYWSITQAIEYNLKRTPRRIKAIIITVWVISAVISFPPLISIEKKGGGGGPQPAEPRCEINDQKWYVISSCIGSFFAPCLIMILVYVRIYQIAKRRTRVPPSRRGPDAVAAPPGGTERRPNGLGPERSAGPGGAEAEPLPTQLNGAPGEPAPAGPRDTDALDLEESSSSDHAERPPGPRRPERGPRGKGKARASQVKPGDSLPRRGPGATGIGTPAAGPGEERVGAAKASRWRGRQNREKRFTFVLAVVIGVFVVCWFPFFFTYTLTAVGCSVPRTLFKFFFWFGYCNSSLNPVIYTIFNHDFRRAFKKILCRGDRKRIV

[5] = molecular target: Voltage-dependent L-type calcium channel subunit alpha-1C (Rattus norvegicus, UniProt P22002); assay type: functional
Voltage-dependent L-type calcium channel subunit alpha-1C, sequence (P22002 whole entry): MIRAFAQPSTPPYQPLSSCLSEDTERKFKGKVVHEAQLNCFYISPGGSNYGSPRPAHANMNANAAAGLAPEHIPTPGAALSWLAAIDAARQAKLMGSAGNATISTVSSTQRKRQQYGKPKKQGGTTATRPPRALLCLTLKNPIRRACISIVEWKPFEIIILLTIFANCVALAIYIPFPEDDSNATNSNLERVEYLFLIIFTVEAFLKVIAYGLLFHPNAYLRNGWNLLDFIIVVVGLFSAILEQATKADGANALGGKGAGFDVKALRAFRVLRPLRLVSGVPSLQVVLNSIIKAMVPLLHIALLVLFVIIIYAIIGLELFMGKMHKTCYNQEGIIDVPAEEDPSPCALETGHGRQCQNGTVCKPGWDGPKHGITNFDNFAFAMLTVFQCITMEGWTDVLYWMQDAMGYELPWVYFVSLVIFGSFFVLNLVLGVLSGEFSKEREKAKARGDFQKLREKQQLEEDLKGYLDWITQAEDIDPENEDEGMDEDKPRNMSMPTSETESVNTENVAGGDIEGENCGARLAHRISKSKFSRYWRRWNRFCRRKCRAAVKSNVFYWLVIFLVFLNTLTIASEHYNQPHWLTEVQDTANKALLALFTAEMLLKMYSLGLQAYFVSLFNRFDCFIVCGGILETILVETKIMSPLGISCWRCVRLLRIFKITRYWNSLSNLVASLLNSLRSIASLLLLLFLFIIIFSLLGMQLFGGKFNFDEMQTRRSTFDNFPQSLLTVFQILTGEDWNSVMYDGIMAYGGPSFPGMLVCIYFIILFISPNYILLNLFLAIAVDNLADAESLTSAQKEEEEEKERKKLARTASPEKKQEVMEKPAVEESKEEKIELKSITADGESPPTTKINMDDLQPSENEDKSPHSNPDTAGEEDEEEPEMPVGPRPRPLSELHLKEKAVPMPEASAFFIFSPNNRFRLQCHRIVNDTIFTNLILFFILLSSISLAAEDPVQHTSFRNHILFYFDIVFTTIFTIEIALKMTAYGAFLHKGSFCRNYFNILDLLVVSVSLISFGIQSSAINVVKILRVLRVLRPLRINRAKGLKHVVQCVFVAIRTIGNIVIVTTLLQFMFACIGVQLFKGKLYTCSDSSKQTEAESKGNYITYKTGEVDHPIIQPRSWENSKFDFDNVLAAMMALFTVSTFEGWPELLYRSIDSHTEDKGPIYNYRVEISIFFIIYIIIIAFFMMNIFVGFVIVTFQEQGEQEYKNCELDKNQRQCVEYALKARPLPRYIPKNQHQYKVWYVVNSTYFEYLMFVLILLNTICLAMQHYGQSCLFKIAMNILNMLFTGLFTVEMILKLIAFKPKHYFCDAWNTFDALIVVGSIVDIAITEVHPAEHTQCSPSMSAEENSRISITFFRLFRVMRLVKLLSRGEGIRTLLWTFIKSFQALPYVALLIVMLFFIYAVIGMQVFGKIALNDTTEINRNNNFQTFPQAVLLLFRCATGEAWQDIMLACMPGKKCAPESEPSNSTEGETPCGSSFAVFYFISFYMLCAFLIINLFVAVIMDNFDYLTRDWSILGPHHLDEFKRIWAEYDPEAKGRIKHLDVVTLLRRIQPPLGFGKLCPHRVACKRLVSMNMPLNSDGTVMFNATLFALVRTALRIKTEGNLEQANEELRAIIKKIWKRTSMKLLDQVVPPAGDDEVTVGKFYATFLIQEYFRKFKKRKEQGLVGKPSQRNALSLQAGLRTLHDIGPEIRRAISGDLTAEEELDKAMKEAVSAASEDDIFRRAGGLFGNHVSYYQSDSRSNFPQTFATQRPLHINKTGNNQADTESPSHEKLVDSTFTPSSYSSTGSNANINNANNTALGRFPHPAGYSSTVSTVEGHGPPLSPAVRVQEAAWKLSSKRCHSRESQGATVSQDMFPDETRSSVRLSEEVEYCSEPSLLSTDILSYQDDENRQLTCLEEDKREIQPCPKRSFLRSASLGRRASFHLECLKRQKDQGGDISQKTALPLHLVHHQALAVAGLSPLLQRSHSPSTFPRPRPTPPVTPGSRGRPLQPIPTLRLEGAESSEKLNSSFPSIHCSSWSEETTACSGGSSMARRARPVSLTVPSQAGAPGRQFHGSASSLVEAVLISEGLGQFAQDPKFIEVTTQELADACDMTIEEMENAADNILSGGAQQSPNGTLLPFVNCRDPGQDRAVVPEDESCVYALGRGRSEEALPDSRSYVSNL

[6] = molecular target: Neuronal acetylcholine receptor subunit alpha-4 (Homo sapiens, UniProt P43681)
Neuronal acetylcholine receptor subunit alpha-4, sequence (P43681 whole entry): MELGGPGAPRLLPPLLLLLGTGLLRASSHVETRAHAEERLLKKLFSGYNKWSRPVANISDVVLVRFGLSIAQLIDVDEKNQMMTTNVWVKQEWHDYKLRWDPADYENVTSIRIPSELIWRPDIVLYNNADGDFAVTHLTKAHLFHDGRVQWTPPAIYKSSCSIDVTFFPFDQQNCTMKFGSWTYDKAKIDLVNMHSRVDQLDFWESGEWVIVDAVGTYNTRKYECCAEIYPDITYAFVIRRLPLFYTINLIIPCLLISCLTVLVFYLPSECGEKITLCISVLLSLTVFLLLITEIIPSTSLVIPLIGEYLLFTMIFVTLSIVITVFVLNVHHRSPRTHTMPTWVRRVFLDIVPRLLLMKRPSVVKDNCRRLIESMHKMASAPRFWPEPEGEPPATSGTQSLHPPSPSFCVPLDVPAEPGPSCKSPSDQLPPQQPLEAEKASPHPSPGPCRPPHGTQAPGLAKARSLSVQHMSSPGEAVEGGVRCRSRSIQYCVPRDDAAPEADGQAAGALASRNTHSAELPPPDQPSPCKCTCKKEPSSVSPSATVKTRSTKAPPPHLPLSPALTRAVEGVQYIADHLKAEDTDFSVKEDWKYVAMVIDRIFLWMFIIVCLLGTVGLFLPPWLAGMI

[7] = molecular target: Gamma-aminobutyric acid receptor subunit alpha-1 (Rattus norvegicus, UniProt P62813)
Gamma-aminobutyric acid receptor subunit alpha-1, sequence (P62813 whole entry): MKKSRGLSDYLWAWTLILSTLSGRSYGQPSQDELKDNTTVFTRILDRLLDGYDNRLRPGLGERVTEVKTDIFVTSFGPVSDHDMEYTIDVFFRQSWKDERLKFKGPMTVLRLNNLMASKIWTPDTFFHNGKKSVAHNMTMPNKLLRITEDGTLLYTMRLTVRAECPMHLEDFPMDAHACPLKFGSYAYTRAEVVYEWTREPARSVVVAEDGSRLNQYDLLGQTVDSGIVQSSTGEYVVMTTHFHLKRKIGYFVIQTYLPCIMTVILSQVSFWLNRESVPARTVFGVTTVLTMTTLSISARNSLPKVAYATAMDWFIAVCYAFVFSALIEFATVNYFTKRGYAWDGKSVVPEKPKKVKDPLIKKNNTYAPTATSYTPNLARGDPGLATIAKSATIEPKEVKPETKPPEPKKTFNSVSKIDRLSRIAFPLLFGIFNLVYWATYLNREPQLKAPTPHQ

[8] = molecular target: T2, 5-hydroxytryptamine receptor 1A (Homo sapiens, UniProt P08908); assay type: functional, cell-based
T2 sequence (P08908 whole entry): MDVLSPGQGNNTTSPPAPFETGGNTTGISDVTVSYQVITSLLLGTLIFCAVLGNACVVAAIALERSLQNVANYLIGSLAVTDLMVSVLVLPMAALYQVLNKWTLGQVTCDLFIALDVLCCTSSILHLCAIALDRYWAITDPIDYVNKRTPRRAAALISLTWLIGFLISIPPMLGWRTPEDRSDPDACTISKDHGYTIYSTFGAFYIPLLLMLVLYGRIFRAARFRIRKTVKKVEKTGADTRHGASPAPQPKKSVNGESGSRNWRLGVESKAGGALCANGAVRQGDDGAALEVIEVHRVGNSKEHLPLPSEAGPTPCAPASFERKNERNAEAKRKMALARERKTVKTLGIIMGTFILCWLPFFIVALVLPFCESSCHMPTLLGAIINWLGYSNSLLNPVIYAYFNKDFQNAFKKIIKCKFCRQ

[9] = molecular target: T3, 5-hydroxytryptamine receptor 2A (Homo sapiens, UniProt P28223); assay type: functional, cell-based
T3 sequence (P28223 whole entry): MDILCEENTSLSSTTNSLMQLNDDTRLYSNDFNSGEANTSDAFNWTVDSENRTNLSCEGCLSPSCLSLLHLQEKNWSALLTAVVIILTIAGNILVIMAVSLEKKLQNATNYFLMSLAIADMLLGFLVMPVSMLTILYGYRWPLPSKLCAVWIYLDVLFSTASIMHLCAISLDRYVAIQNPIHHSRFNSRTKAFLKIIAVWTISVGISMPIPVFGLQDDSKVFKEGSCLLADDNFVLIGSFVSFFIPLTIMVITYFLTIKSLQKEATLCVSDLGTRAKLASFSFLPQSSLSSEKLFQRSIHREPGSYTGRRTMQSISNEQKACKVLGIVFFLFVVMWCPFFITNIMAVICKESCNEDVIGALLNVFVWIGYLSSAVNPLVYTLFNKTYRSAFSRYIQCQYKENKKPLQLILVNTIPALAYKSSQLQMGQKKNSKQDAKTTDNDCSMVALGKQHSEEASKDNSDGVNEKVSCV

[10] = molecular target: T3, 5-hydroxytryptamine receptor 2A; assay type: functional, cell-based; remark: listed apart in the source
[11] = molecular target: T4, Progesterone receptor (Homo sapiens, UniProt P06401); assay type: functional
T4 sequence (P06401 whole entry): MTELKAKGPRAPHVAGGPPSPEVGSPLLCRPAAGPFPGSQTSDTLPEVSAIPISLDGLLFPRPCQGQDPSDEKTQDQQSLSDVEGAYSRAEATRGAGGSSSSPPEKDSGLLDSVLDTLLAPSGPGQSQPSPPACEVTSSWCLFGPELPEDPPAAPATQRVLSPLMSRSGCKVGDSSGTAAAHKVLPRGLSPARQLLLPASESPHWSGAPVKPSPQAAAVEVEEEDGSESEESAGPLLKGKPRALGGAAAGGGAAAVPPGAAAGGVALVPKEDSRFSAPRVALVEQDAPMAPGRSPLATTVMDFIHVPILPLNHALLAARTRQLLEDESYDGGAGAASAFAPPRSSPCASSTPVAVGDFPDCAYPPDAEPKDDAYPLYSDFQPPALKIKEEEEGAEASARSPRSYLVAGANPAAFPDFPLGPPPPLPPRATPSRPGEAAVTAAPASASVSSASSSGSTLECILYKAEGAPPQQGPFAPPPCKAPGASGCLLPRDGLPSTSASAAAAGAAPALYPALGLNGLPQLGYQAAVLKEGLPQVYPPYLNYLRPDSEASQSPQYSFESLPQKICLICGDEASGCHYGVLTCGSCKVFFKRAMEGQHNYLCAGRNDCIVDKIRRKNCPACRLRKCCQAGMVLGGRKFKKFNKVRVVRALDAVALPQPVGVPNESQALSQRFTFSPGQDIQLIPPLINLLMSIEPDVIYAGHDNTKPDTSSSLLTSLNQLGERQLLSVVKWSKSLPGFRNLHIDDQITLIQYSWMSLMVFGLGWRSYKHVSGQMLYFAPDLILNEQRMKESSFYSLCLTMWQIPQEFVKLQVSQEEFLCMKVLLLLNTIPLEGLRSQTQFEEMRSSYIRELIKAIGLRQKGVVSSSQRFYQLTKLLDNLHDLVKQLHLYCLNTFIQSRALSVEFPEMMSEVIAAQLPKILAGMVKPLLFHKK

[12] = molecular target: T5, Prostaglandin G/H synthase 1 (Rattus norvegicus, UniProt Q63921); assay type: functional
T5 sequence (Q63921 whole entry): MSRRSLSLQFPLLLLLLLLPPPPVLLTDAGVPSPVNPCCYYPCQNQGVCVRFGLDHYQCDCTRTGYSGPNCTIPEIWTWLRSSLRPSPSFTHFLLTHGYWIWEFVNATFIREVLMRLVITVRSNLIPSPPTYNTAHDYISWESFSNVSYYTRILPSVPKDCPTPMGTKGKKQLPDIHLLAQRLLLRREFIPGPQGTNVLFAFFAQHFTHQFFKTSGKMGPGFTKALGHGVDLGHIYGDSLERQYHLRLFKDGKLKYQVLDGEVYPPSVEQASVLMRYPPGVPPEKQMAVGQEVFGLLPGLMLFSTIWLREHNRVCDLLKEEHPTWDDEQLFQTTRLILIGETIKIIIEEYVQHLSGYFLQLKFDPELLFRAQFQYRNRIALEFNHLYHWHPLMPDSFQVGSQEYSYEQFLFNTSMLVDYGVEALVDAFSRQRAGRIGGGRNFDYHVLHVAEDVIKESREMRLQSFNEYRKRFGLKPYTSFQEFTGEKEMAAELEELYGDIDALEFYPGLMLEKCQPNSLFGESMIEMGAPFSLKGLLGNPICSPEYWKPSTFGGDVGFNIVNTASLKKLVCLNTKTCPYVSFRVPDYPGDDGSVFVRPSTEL

[13] = molecular target: Sodium-dependent dopamine transporter (Homo sapiens, UniProt Q01959)
Sodium-dependent dopamine transporter, sequence (Q01959 whole entry): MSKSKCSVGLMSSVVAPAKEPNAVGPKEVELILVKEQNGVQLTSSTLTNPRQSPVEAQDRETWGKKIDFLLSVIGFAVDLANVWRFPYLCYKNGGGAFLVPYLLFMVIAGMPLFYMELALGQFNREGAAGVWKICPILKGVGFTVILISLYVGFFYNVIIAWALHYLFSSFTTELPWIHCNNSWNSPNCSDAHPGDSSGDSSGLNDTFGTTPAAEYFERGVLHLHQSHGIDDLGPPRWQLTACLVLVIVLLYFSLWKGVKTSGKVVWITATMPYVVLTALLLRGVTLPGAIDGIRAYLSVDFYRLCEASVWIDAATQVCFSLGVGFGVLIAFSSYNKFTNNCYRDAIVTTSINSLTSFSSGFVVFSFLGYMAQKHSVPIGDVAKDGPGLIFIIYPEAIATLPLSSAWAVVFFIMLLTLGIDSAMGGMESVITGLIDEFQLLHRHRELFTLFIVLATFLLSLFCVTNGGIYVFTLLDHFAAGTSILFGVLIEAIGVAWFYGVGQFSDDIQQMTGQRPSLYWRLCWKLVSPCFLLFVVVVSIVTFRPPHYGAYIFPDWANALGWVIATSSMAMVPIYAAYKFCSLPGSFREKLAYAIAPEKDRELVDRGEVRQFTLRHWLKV
Note: assay procedure not described here.

D(3) dopamine receptor, sequence (P35462 whole entry): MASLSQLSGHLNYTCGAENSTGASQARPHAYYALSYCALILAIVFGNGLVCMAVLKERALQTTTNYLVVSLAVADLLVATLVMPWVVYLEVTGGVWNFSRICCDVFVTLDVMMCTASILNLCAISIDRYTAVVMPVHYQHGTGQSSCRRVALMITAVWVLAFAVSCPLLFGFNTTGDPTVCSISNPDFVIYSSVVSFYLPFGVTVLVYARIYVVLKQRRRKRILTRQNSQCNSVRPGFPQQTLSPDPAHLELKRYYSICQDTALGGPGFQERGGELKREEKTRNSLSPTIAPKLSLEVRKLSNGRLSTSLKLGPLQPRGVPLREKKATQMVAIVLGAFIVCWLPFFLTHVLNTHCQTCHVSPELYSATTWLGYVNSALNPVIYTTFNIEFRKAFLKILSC

Molecule: CN(C)c1ccc(C(=C2C=CC(=[N+](C)C)C=C2)c2ccc(N(C)C)cc2)cc1 [GENTIAN VIOLET]
AC50 [1]: 1.21 µM
AC50 [2]: 4.7 µM

Molecule: Nc1ccc(S(N)(=O)=O)cc1 [SULFANILAMIDE]
AC50 [3]: > 30 µM

AC50 [4]: > 30 µM
AC50 [5]: > 30 µM
AC50 [6]: > 30 µM
AC50 [7]: > 30 µM
AC50 [8]: > 30 µM
AC50 [9]: > 30 µM
AC50 [10]: > 30 µM
AC50 [11]: > 30 µM
AC50 [12]: 0.003 µM
AC50 [13]: > 30 µM
Molecule: HYDROXOCOBALAMIN

Source: ChEMBL document CHEMBL5291721, “A preclinical secondary pharmacology resource illuminates target-adverse drug reaction associations of marketed drugs” (Nat Commun, 2023)
